The record followed here is BindingDB's records for doi:10.1021/jm050680m (Johnson & Johnson Pharmaceutical Research and Development, 2005).

Assay [1] is described as follows: Antiproliferative activity against PDGF-BB stimulated HCASMC.
Test in assay [2]: as above
This is another data set of the same source.

The compound `COC(=O)c1cccc(Nc2[nH]nc3c2Cc2cc(OC)c(OC)cc2-3)c1` [3-carbomethoxy-N-(6,7-dimethoxy-2,4-dihydroindeno[1,2-c]pyrazol-3-yl)phenylamine] had an IC50 in assay [1] of 11 nM.

Regarding `COc1cc2c(cc1OC)-c1n[nH]c(Nc3cccc(F)c3)c1C2` [JNJ-10198409], in assay [1], inhibition was half-maximal at 3 nM (IC50). This IC50 is about 3.7-fold lower than that of the compound before.

As for `COc1cccc2c1Cc1c-2n[nH]c1Nc1ccccc1` [(5-methoxy-2,4-dihydroindeno[1,2-c]pyrazol-3-yl)phenylamine], in assay [1], the IC50 turned out to be 487 nM.

`COc1cc2c(cc1OC)-c1n[nH]c(Nc3cccc(C(F)(F)F)c3)c1C2` [3-trifluoromethyl-N-(6,7-dimethoxy-2,4-dihydroindeno[1,2-c]pyrazol-3-yl)phenylamine] yielded an IC50 in assay [1] of 1 nM.

Regarding `COc1cc2c(cc1OC)-c1n[nH]c(Nc3cccc(Br)c3)c1C2` [3-bromo-N-(6,7-dimethoxy-2,4-dihydroindeno[1,2-c]pyrazol-3-yl)phenylamine], the midpoint of inhibition in assay [2], the IC50, lay at 32 nM.
